{
  "source": "ChEMBL document CHEMBL1138198",
  "about": "“Carbonic anhydrase inhibitors: DNA cloning and inhibition studies of the alpha-carbonic anhydrase from Helicobacter pylori, a new target for developing sulfonamide and sulfamate gastric drugs” (J Med Chem, 2006)",
  "key": {"Carbonic anhydrase": {"molecular_target": "T1, Carbonic anhydrase (Helicobacter pylori (strain ATCC 700392 / 26695) (Campylobacterpylori), UniProt O24855)", "T1 sequence (O24855 whole entry)": "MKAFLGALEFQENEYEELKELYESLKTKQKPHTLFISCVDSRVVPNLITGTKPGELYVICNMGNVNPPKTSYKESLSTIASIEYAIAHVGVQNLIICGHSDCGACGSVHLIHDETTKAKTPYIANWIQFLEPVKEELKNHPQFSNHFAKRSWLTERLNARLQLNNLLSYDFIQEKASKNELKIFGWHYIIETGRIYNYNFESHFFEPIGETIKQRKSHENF", "description": "Inhibition of Helicobacter pylori recombinant carbonic anhydrase by stopped-flow CO2 hydrase assay"}, "Carbonic anhydrase 1": {"molecular_target": "Carbonic anhydrase 1 (Homo sapiens, UniProt P00915)", "sequence (P00915 whole entry)": "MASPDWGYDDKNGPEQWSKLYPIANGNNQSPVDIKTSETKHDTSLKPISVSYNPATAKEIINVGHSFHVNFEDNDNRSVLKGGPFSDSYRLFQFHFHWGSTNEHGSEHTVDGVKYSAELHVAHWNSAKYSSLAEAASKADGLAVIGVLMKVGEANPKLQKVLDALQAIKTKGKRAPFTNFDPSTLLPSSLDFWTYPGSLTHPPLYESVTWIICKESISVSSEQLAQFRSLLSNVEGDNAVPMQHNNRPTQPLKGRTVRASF", "description": "Inhibition of human recombinant carbonic anhydrase 1 by stopped-flow CO2 hydrase assay"}},
  "data": [
    {"smiles": "CCN[C@H]1CN(CCCOC)S(=O)(=O)c2sc(S(N)(=O)=O)cc21", "note": "[BRINZOLAMIDE]", "values": [
      {"measurement": "Ki", "setting": "Carbonic anhydrase", "result": 210, "unit": "nM"}
    ]},
    {"smiles": "CC(C)(C)c1ccc(C(=O)NCc2ccc(S(N)(=O)=O)cc2)cc1", "values": [
      {"measurement": "Ki", "setting": "Carbonic anhydrase", "result": 62, "unit": "nM"},
      {"measurement": "Ki", "setting": "Carbonic anhydrase 1", "result": 13300, "unit": "nM"}
    ]},
    {"smiles": "CC(C)(C)c1ccc(S(=O)(=O)CNc2ccc(S(N)(=O)=O)cc2)cc1", "values": [
      {"measurement": "Ki", "setting": "Carbonic anhydrase", "result": 31, "unit": "nM"},
      {"measurement": "Ki", "setting": "Carbonic anhydrase 1", "result": 12100, "unit": "nM"}
    ]},
    {"smiles": "NS(=O)(=O)c1ccc(C(=O)O)cc1", "note": "[CARZENIDE]", "values": [
      {"measurement": "Ki", "setting": "Carbonic anhydrase", "result": 1050, "unit": "nM"}
    ]},
    {"smiles": "Nc1ccc(S(=O)(=O)NCCc2ccc(S(N)(=O)=O)cc2)cc1", "values": [
      {"measurement": "Ki", "setting": "Carbonic anhydrase", "result": 114, "unit": "nM"}
    ]},
    {"smiles": "CC(C)(C)c1ccc(C(=O)Nc2cccc(S(N)(=O)=O)c2)cc1", "values": [
      {"measurement": "Ki", "setting": "Carbonic anhydrase", "result": 316, "unit": "nM"},
      {"measurement": "Ki", "setting": "Carbonic anhydrase 1", "result": 10800, "unit": "nM"}
    ]},
    {"smiles": "CC(C)(C)c1ccc(S(=O)(=O)Nc2ccc(S(N)(=O)=O)cc2)cc1", "values": [
      {"measurement": "Ki", "setting": "Carbonic anhydrase", "result": 60, "unit": "nM"},
      {"measurement": "Ki", "setting": "Carbonic anhydrase 1", "result": 13000, "unit": "nM"}
    ]},
    {"smiles": "Cc1ccc(S(N)(=O)=O)cc1", "note": "[P-TOLUENESULFONAMIDE]", "values": [
      {"measurement": "Ki", "setting": "Carbonic anhydrase", "result": 450, "unit": "nM"}
    ]},
    {"smiles": "CC(C)(C)c1ccc(S(=O)(=O)Nc2cccc(S(N)(=O)=O)c2)cc1", "values": [
      {"measurement": "Ki", "setting": "Carbonic anhydrase", "result": 318, "unit": "nM"},
      {"measurement": "Ki", "setting": "Carbonic anhydrase 1", "result": 9620, "unit": "nM"}
    ]},
    {"smiles": "Cn1nc(S(N)(=O)=O)sc1=N", "values": [
      {"measurement": "Ki", "setting": "Carbonic anhydrase", "result": 549, "unit": "nM"}
    ]},
    {"smiles": "CC(C)(C)c1ccc(C(=O)Nc2ccccc2S(N)(=O)=O)cc1", "values": [
      {"measurement": "Ki", "setting": "Carbonic anhydrase", "result": 539, "unit": "nM"},
      {"measurement": "Ki", "setting": "Carbonic anhydrase 1", "result": 12300, "unit": "nM"}
    ]},
    {"smiles": "CC(C)(C)c1ccc(C(=O)Nc2ccc(S(N)(=O)=O)cc2)cc1", "values": [
      {"measurement": "Ki", "setting": "Carbonic anhydrase", "result": 79, "unit": "nM"},
      {"measurement": "Ki", "setting": "Carbonic anhydrase 1", "result": 14200, "unit": "nM"}
    ]},
    {"smiles": "Nc1ccc(S(=O)(=O)Nc2nnc(S(N)(=O)=O)s2)cc1", "values": [
      {"measurement": "Ki", "setting": "Carbonic anhydrase", "result": 268, "unit": "nM"}
    ]},
    {"smiles": "CC(C)(C)c1ccc(S(=O)(=O)Nc2ccccc2S(N)(=O)=O)cc1", "values": [
      {"measurement": "Ki", "setting": "Carbonic anhydrase", "result": 640, "unit": "nM"},
      {"measurement": "Ki", "setting": "Carbonic anhydrase 1", "result": 14700, "unit": "nM"}
    ]},
    {"smiles": "Nc1ccc(S(N)(=O)=O)cc1I", "values": [
      {"measurement": "Ki", "setting": "Carbonic anhydrase", "result": 510, "unit": "nM"}
    ]},
    {"smiles": "Nc1ccc(S(N)(=O)=O)cc1Cl", "values": [
      {"measurement": "Ki", "setting": "Carbonic anhydrase", "result": 378, "unit": "nM"}
    ]},
    {"smiles": "Nc1ccc(S(N)(=O)=O)cc1F", "values": [
      {"measurement": "Ki", "setting": "Carbonic anhydrase", "result": 1230, "unit": "nM"}
    ]},
    {"smiles": "CC(C)(C)c1ccc(C(=O)NCCc2ccc(S(N)(=O)=O)cc2)cc1", "values": [
      {"measurement": "Ki", "setting": "Carbonic anhydrase", "result": 51, "unit": "nM"},
      {"measurement": "Ki", "setting": "Carbonic anhydrase 1", "result": 12400, "unit": "nM"}
    ]},
    {"smiles": "CC(C)(C)c1ccc(C(=O)Nc2nnc(S(N)(=O)=O)s2)cc1", "values": [
      {"measurement": "Ki", "setting": "Carbonic anhydrase", "result": 13, "unit": "nM"},
      {"measurement": "Ki", "setting": "Carbonic anhydrase 1", "result": 541, "unit": "nM"}
    ]},
    {"smiles": "NCc1ccc(S(N)(=O)=O)cc1", "note": "[MAFENIDE]", "values": [
      {"measurement": "Ki", "setting": "Carbonic anhydrase", "result": 873, "unit": "nM"}
    ]},
    {"smiles": "Nc1nccc(Nc2ccc(S(N)(=O)=O)cc2)n1", "values": [
      {"measurement": "Ki", "setting": "Carbonic anhydrase", "result": 84, "unit": "nM"}
    ]},
    {"smiles": "CC(C)(C)c1ccc(S(=O)(=O)CCNc2ccc(S(N)(=O)=O)cc2)cc1", "values": [
      {"measurement": "Ki", "setting": "Carbonic anhydrase", "result": 27, "unit": "nM"},
      {"measurement": "Ki", "setting": "Carbonic anhydrase 1", "result": 12000, "unit": "nM"}
    ]},
    {"smiles": "CC(C)(C)c1ccc(S(=O)(=O)Nc2nnc(S(N)(=O)=O)s2)cc1", "values": [
      {"measurement": "Ki", "setting": "Carbonic anhydrase", "result": 12, "unit": "nM"},
      {"measurement": "Ki", "setting": "Carbonic anhydrase 1", "result": 338, "unit": "nM"}
    ]},
    {"smiles": "Nc1ccc(S(=O)(=O)NCc2ccc(S(N)(=O)=O)cc2)cc1", "values": [
      {"measurement": "Ki", "setting": "Carbonic anhydrase", "result": 131, "unit": "nM"}
    ]},
    {"smiles": "Nc1ccc(S(N)(=O)=O)cc1Br", "values": [
      {"measurement": "Ki", "setting": "Carbonic anhydrase", "result": 452, "unit": "nM"}
    ]},
    {"smiles": "NS(=O)(=O)c1ccc(S(=O)(=O)Nc2cccc3c(Cl)c[nH]c23)cc1", "values": [
      {"measurement": "Ki", "setting": "Carbonic anhydrase", "result": 413, "unit": "nM"}
    ]}
  ]
}
